pIC50: −log10 of the molar value.
Columns and labels:
Homo sapiens [1] = species: Homo sapiens; assay: Selectivity ratio of IC50 for inhibition of PI3Kdelta (unknown origin) to IC50 for inhibition of PI3Kgamma (unknown origin)
Homo sapiens [2] = species: Homo sapiens; assay: Selectivity ratio of IC50 for inhibition of PI3Kalpha (unknown origin) to IC50 for inhibition of PI3Kgamma (unknown origin)
CYP3A4 = CYP3A4 (Homo sapiens, UniProt P08684); assay: in vitro; settings: human liver microsomes, probe midazolam
Chain of CYP3A4 (P08684 whole entry, canonical isoform): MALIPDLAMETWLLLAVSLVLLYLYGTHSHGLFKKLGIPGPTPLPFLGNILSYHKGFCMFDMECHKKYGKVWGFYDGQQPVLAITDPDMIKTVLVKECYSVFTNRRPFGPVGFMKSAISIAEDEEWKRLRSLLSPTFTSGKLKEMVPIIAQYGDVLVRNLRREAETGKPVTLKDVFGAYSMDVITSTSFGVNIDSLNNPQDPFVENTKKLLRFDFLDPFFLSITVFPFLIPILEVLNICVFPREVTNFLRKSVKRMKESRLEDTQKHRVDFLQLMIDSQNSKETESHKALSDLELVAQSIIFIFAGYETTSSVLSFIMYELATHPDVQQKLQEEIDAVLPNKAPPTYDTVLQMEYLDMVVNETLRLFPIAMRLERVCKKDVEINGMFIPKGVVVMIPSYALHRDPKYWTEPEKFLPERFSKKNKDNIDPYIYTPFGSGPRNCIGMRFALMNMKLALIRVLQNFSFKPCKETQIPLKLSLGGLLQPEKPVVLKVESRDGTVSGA
Description: Time dependent inhibition of CYP3A4 in human liver microsomes at 10 uM using midazolam as substrate preincubated for 30 mins in presence of NADPH by LC/MS/MS analysis relative to control

[3] = target: T1, Phosphatidylinositol 4,5-bisphosphate 3-kinase catalytic subunit gamma isoform (Homo sapiens, UniProt P48736); assay: Inhibition of PI3Kgamma (unknown origin) using PIP2 as substrate preincubated for 1 hr followed by substrate addition and measured after 60 mins in presence of ATP by ADP-glo assay
T1 sequence (P48736 whole entry, canonical isoform): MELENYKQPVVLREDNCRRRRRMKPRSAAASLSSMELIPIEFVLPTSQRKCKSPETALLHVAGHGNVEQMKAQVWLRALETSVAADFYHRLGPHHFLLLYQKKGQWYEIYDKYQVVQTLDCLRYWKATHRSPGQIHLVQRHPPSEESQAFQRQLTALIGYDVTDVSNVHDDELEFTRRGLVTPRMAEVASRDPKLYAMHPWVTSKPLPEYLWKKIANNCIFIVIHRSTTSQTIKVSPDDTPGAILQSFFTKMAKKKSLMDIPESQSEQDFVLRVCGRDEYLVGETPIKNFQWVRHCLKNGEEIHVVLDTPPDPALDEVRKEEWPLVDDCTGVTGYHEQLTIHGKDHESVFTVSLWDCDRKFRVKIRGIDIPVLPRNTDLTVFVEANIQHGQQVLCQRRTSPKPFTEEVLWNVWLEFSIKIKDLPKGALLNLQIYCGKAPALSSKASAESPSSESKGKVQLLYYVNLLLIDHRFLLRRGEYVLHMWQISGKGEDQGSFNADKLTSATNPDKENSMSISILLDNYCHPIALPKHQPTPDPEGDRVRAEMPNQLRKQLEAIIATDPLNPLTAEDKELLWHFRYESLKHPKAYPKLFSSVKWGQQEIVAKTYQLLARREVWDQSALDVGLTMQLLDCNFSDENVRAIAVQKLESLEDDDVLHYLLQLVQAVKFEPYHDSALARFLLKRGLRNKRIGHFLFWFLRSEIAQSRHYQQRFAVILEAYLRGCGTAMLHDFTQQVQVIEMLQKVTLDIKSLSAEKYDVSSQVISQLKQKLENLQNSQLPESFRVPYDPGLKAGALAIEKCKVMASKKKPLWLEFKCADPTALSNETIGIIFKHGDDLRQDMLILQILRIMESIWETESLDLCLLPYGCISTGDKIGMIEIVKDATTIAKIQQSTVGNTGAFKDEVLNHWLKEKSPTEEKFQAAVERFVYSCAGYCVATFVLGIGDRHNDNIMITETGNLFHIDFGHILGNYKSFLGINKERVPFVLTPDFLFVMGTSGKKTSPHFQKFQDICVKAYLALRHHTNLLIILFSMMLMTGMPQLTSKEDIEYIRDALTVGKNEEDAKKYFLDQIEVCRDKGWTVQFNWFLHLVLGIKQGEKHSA

[4] = target: T2, Phosphatidylinositol 4,5-bisphosphate 3-kinase catalytic subunit delta isoform (Homo sapiens, UniProt O00329); assay: Inhibition of PI3Kdelta (unknown origin) using PIP2 as substrate preincubated for 1 hr followed by substrate addition and measured after 60 mins in presence of ATP by ADP-glo assay
T2 sequence (O00329 whole entry): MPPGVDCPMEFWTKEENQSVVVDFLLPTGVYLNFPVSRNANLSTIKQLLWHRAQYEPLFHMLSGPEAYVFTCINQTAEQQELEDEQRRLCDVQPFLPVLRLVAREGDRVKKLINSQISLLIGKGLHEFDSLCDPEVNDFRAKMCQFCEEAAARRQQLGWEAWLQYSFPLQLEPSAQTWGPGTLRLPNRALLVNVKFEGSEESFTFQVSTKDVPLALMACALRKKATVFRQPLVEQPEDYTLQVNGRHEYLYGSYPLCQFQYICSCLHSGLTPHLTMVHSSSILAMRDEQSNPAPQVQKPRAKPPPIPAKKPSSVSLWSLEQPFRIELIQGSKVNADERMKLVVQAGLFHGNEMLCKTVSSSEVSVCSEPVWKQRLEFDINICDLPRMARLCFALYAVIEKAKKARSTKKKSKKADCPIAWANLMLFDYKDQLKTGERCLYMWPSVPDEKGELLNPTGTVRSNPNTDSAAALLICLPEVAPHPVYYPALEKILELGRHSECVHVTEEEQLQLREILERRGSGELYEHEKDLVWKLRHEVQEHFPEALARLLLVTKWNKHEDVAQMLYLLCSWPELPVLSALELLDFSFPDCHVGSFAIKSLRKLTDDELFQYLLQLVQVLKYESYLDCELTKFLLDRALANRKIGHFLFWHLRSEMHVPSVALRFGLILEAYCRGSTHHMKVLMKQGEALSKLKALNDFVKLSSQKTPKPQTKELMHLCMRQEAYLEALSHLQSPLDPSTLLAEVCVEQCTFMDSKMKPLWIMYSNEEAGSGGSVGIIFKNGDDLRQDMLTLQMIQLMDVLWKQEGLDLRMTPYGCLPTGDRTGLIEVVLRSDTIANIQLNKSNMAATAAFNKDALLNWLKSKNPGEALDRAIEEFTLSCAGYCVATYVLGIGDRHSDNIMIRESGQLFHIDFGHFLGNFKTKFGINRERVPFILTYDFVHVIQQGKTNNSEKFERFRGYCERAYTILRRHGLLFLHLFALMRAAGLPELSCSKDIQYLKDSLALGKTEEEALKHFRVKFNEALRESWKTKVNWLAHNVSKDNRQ

[5] = Hepatic clearance in Sprague-Dawley rat by LC-MS/MS analysis; format: ADME; settings: in vivo
[6] = Metabolic stability in human hepatocytes assessed as intrinsic clearance per 10^6 cells at 0.5 uM by LC-MS/MS analysis; format: ADME, cell-based, Hepatocyte; settings: read-out: CLH
[7] = target: Phosphatidylinositol 4,5-bisphosphate 3-kinase catalytic subunit alpha isoform (Homo sapiens, UniProt P42336); assay: Inhibition of PI3Kalpha (unknown origin) using PIP2 as substrate preincubated for 1 hr followed by substrate addition and measured after 60 mins in presence of ATP by ADP-glo assay
Chain of Phosphatidylinositol 4,5-bisphosphate 3-kinase catalytic subunit alpha isoform (P42336 whole entry, canonical isoform): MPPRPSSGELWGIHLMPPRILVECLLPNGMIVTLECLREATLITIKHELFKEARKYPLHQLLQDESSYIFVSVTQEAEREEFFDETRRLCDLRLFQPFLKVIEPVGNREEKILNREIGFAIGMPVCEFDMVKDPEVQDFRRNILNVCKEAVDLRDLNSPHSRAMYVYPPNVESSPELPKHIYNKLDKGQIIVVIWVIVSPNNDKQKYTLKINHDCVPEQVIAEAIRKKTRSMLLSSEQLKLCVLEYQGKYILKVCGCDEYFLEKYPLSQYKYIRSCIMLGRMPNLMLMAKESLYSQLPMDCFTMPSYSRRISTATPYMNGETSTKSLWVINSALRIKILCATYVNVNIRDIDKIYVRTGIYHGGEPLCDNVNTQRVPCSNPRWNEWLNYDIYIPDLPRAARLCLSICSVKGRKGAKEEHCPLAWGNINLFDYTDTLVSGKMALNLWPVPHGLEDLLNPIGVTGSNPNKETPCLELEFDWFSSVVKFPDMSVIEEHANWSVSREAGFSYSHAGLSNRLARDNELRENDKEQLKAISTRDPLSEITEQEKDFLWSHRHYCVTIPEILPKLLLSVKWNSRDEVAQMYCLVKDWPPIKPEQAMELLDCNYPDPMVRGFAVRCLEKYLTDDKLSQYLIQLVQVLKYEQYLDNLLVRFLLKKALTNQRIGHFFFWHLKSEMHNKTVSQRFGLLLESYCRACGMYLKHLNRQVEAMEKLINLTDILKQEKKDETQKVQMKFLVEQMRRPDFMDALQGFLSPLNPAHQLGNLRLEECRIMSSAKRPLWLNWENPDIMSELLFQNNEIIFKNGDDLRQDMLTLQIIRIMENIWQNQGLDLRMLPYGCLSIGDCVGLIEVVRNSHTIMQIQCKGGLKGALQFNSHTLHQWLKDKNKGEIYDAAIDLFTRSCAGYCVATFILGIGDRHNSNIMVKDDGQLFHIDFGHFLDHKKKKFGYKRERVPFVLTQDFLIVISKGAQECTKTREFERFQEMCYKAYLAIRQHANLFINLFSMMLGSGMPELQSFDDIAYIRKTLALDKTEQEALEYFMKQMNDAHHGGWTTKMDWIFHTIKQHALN

[8] = target: T1, Phosphatidylinositol 4,5-bisphosphate 3-kinase catalytic subunit gamma isoform; assay: Inhibition of PI3Kgamma (unknown origin) in […] stimulated human THP-1 cells assessed as reduction in Akt phosphorylation level at Ser473 residue preincubated for 60 mins followed by rhMCP-1 stimulation and measured after 2 mins by AlphaLisa assay; format: cell-based
[9] = Metabolic stability in rat hepatocyte assessed as intrinsic clearance per 10^8 cells at 0.5 uM by LC-MS/MS analysis; format: ADME, cell-based; settings: hepatocytes
[10] = target: T1, Phosphatidylinositol 4,5-bisphosphate 3-kinase catalytic subunit gamma isoform; assay: Inhibition of PI3Kgamma in SDF-1alpha stimulated human whole blood assessed as reduction in phospho-AKT kinase activity preincubated for 1 hr followed by SDF-1alpha stimulation and measured after 2 mins by flow cytometric analysis; format: tissue-based

SMILES	Ratio IC50 (Homo sapiens [1])	Ratio IC50 (Homo sapiens [2])	inhibition at 30 min, 10 µM (CYP3A4) [%]	pIC50 [3]	pIC50 [4]	CLH [5] [mL/min/kg]	hepatocyte CLint at 0.5 µM [6] [µL/min/1e6 cells]	pIC50 [7]	pIC50 [8]	hepatocyte intrinsic clearance [9] [µL/min]	pIC50 [10]
CNS(=O)(=O)c1cc(-c2ccn3nc(N)c(C(=O)NC4CC4)c3n2)cc2c1C(=O)N([C@@H](C)C1CC1)C2	96	–	34	8.57	6.59	35	4.46	6.28	7.44	4.91	–
Cc1cc(-c2ccn3nc(N)c(C(=O)Nc4cnn(C)c4)c3n2)cc2c1C(=O)N([C@@H](C)C1CC1)C2	–	–	49	8.47	–	43.3	13.4	–	6.90	12.2	–
C[C@H](N1Cc2cc(-c3ccn4nc(N)c(C(=O)N[C@H]5CC[C@@](C)(O)CC5)c4n3)cc(NS(C)(=O)=O)c2C1=O)C(F)(F)F	46	61	–	8.49	6.84	–	2.44	6.71	7.51	3.38	6.10
C[C@@H](C1CC1)N1Cc2cc(-c3ccn4nc(N)c(C(=O)NC5CC5)c4n3)cc(NS(C)(=O)=O)c2C1=O	157	–	37	8.57	6.38	12	< 1.2	6.23	7.43	< 1.2	–
Cc1cc(-c2ccn3ncc(C(=O)Nc4cnn(C)c4)c3n2)cc2c1C(=O)N([C@@H](C)C1CC1)C2	–	–	33	7.47	–	48.3	7.31	–	6.20	12.2	–
C[C@@H](C1CC1)N1Cc2cc(-c3ccn4nc(N)c(C(=O)NC5CC5)c4n3)cc(C(F)(F)F)c2C1=O	547	443	7	8.44	5.71	5	< 1.2	5.80	6.99	< 1.2	–
C[C@@H](C1CC1)N1Cc2cc(-c3ccn4nc(N)c(C(=O)NC5CC5)c4n3)cc(S(=O)(=O)C3CC3)c2C1=O	100	223	23	8.77	6.76	41.7	1.99	6.42	7.25	< 1.2	–
CCS(=O)(=O)c1cc(-c2ccn3nc(N)c(C(=O)NC4CC4)c3n2)cc2c1C(=O)N([C@@H](C)C1CC1)C2	175	170	16	8.32	6.08	68.3	2.03	6.09	7.17	< 1.2	–
C[C@@H](C1CC1)N1Cc2cc(-c3ccn4nc(N)c(C(=O)NC5CC5)c4n3)cc(OC(F)(F)F)c2C1=O	518	411	20	8.44	5.73	8.3	1.67	5.83	7.24	< 1.2	–

Further lines, results first:

Ratio IC50 (Homo sapiens [1])	Ratio IC50 (Homo sapiens [2])	inhibition at 30 min, 10 µM (CYP3A4) [%]	pIC50 [3]	pIC50 [4]	CLH [5] [mL/min/kg]	hepatocyte CLint at 0.5 µM [6] [µL/min/1e6 cells]	pIC50 [7]	pIC50 [8]	hepatocyte intrinsic clearance [9] [µL/min]	pIC50 [10]	SMILES
439	568	4	8.74	6.11	73.3	< 1.2	6.00	6.96	2.73	–	Cc1cc(-c2ccn3nc(N)c(C(=O)N[C@H]4CNC(=O)C4)c3n2)cc2c1C(=O)N([C@@H](C)C1CC1)C2
388	464	12	8.74	6.16	33	6.21	6.08	6.81	4.59	–	Cc1cc(-c2ccn3nc(N)c(C(=O)NC4COC4)c3n2)cc2c1C(=O)N([C@@H](C)C1CC1)C2
668	1580	46	8.64	5.80	76.7	29.3	5.44	6.53	82.7	–	Cc1cc(-c2ccn3nc(N)c(C(=O)NC4CCC4)c3n2)cc2c1C(=O)N([C@@H](C)C1CC1)C2
415	205	19	8.46	5.89	15	1.31	6.15	6.73	< 1.2	–	Cc1cc(-c2ccn3nc(N)c(C(=O)N[C@H](C)CO)c3n2)cc2c1C(=O)N([C@@H](C)C1CC1)C2
> 3440	> 3440	7	8.54	< 5.00	8.3	2.03	< 5.00	6.88	1.31	–	Cc1cc(-c2ccn3nc(N)c(C(=O)N[C@@H](CO)C4CC4)c3n2)cc2c1C(=O)N([C@@H](C)C1CC1)C2
460	904	27	8.44	5.78	6.7	8.92	5.48	6.67	1.5	–	Cc1cc(-c2ccn3nc(N)c(C(=O)NC4CC4)c3n2)cc2c1C(=O)N([C@@H](C)C1CC1)C2
236	148	4	8.62	6.25	88.3	< 1.2	6.45	7.37	< 1.2	–	C[C@@H](C1CC1)N1Cc2cc(-c3ccn4nc(N)c(C(=O)NC5CC5)c4n3)cc(S(C)(=O)=O)c2C1=O
51	156	26	8.92	7.21	50	4.76	6.73	6.97	10.8	–	Cc1cc(-c2ccn3nc(N)c(C(=O)N[C@H]4CC[C@H](O)CC4)c3n2)cc2c1C(=O)N([C@@H](C)C1CC1)C2
29	33	14	8.38	6.91	71.7	3.26	6.85	7.09	24.6	–	Cc1cc(-c2ccn3nc(N)c(C(=O)N[C@@H]4CC[C@@H](O)C4)c3n2)cc2c1C(=O)N([C@@H](C)C1CC1)C2
